Experimental data as given in patent publication US20030134859A1 (SANKYO COMPANY, LIMITED, priority 2000, published 2003).

Key:
KK mice = experiment: Plasma glucose lowering effects in hyperglycemic KK mice; format: in vivo, mouse; conditions: male KK mice, 0.3 weight % in food for 1 week
Experimental: Unless otherwise described, mice were bred individually, and food and water were taken ad libitum in the following experiments. For this, F2 food powder (Funahashi Farm) was used. Plasma glucose level in the blood collected from the tail vein of a mouse with a heparin-coated glass tube was determined with the Glucoloader (A&T Corp.).
Male KK mice (purchased from Clea Japan, Inc) were purchased at 6 weeks old and were bred until 19 weeks old through an acclimatisation period and test period. The plasma glucose level of each mouse was determined and the occurrence of hyperglycemia in the mice was confrrmed. The animals with a plasma glucose level of 350 mg/dl and higher were screened and the animals for use in the experiment were selected. The selected mice were divided into a control group and a test compound treated group (n=6/group) matched for body weights and plasma glucose levels.
In the control group, conventional food powder was given-to each mouse, while in the test compound-treated group, the food comprising the food powder (F2) mixed with the test compound (final concentration: 0.3 weight %) was given to each mouse. The mice in both groups were bred for 1 week.
One week after the treatment, the blood glucose level was determined.

lenses = experiment: Cataract assessment: opacity of cultured lenses exposed to hydrogen peroxide; design: species or system rat; conditions: 100 nM test compound with 5 mM hydrogen peroxide; 24 hr; clear: 0, slightly opaque: 1, moderately opaque: 2
Experimental: The lenses were isolated from Sprague-Dawley rats (male, purchased from SLC Japan), and the lenses were pre-cultured in a medium (Medium-199: GIBCO BRL) for 3 hr and the lenses maintaining transparency were selected and used in the experiment. The crystalline lenses were cultured for 24 hr in the following 3 groups; 1) in Medium-199 (3 mL), 2) in Medium-199 (3 mL) containing hydrogen peroxide (final concentration: 5 mM) and 3) in Medium-199 (3 mL) containing the test compound (final concentration: 100 nM), DMSO (final concentration: 0.1% v/v) and hydrogen peroxide (final concentration: 5 mM). After finalising culturing, the opacity of the lens was scored based on the following criteria: clear: 0, slightly opaque: 1, moderately opaque: 2. Thus the improving effect of the test compound on cataracts was assessed.

ABCA1 mRNA = experiment: Quantitative analysis of ABCA1 mRNA (TaqMan PCR) in RAW264.7 cells; format: cell-based, mouse; conditions: 100 nM test compound, 24 hr, normalised to β-actin, DMSO = 100
Experimental: The mouse monocyte/macrophage cell line, RAW264.7 (ATCC TIB71) was purchased from Dainippon Pharmaceutical Co., Ltd. As the medium, the Dulbecco's modified Eagle's medium (DMEM medium; GIBCO, Cat. No. 11995-040) containing bovine fetal serum (the final concentration: 10% (v/v), MOREGATE, lot No. 474030), penicillin G (the final concentration: 50 units/mL, GIBCO) and streptomycin (the final concentration: 20 μg/mL, GIBCO) was used.
The culture of RAW264.7 cells was carried out in a CO2 incubator (37° C., 95% R.H., 5% of CO2).
A 2 ml volume of RAW264.7 cells suspension (1×10^6 cells/mL) was plated in each well of a 6-well plate (2×10^6 cells/well) and the cells were incubated for 2 hr in a CO2 incubator. The test compounds dissolved in DMSO were diluted with DMEM medium by 20 times, and were added to the wells at a volume of 4 μL/well (final concentration of the test compound: 100 nM). As the control, the DMSO solution was diluted with the DMEM medium by 20 times, and was added to the wells at the volume of 4 μL/well. After the cells were cultured in a CO2 incubator for 24 hr, the medium was removed and the total RNA was purified by using an RNeasy Mini Kit (Qiagen), according to the protocol attached. The concentration of the RNA in the samples obtained was calculated from absorbance at 260 nm (A260=1=40 μg/ml). Six (6) μg of total RNA were diluted with RNAase-free water so as to be 22.6 μL, which was heated at 65° C. for 10 min, and then was cooled on ice. The RNA in the solution was used as the template, and the cDNA was synthesized by using a First-strand cDNA Synthesis Kit (Amersham Pharmacia Biotech). In this reaction, a solution was prepared having the following composition and was reacted at 37° C. for 1 hr.
After the reaction, 3 μL of soution were collected from each of the reaction mixtures of the test compound-treated cell samples and that of the control cell samples. The mixed solution was used as the standard solution. The standard solution and each reaction solution were purified with a Chroma Spin-100+DEPC-H2O Column according to the protocol attached, and they were used as the template for TaqMan PCR (Template). In order to draw the calibration curve, the standard solution was diluted by every 5 times for 5 steps and each solution was used for TaqMan PCR. TaqMan PCR was carried out in ABCA1 and β-actin. As Primers for use in the TaqMan PCR, 4 oligonucleotides (abca1 forward (S3), abca1 reverse (AS3), β-actin forward (S4) and β-actin reverse (AS4)) were designed which are shown in sequences No. 5 to 8 in the sequence table described later. The synthesis and purification of these 4 oligomers was ordered from Amersham Pharmacia Biotech Co.
As FAM-TAMRA labelled TaqMan Probe, 2 kinds of oligonucleotides (abca1 (p1) and β-actin (p2)) were designed and were ordered from Applied Biosystems Co. to synthesize and purify.
The following reaction mixture of ABCA1 or β-actin was divided into 2 wells of a MicroAmp Optical 96-well Reaction Plate (Applied Biosystem Co.). TaqMan Universal PCR Master Mix was purchased from Applied Biosystem Co.
The plate was covered with a MicroAmp Optical Cap (Applied Biosystems Co.), and TaqMan PCR was carried out by using an ABI PRISM 7,700 Sequence Detection System (Applied Biosystem Co.) under the following conditions:
An analysis was made according to the procedures described in the manual of Sequence Detection Software (Applied Biosystem Co.) and the increased rate of ABCA1 mRNA due to the test compound was calculated based on the following equation.
A: Amount of the ABCA1 mRNA in the presence of the test compound
B: Amount of the β-actin mRNA in the presence of the test compound
C: Amount of the ABCA1 mRNA in the presence of DMSO
D: Amount of the β-actin mRNA in the presence of DMSO
Increase Rate (%) of ABCA1 mRNA=(A/B)/(C/D)×100

O=C(Nc1ccc(OC(F)(F)F)cc1)c1cc([N+](=O)[O-])ccc1Cl [Example 18, N-(4-Trifluoromethyloxyphenyl)-(2-chloro-5-nitrophenyl)carboxamide] was tested, and the “plasma glucose on Day 7” value (KK mice; n=6/group) was 315 ± 14 and the “% of inhibition (vs. control)” value (KK mice; plasma glucose on Day 7) was 55%.

In the case of Cc1c(C)c2c(c(C)c1O)C(=O)CC(C)(COc1ccc(NC(=O)c3cc([N+](=O)[O-])ccc3Cl)cc1)O2 (centres unmarked) [Example 92, N-[4-(6-Hydroxy-2,5,7,8-tetramethyl-4-oxochroman-2-ylmethoxy)phenyl]-(2-chloro-5-nitrophenyl)carboxamide], the “opacity of the lens (average score)” value (lenses) is reported as 1.0.

For CCN(CC)c1ccc(-c2ccc(NC(=O)c3cc([N+](=O)[O-])ccc3Cl)cc2)cc1 [Example 217, N-[4-[4-(N,N-Diethylamino)phenyl]phenyl]-(2-chloro-5-nitrophenyl)carboxamide], the “Rate of Increase (%) of ABCA1 mRNA” value (ABCA1 mRNA) was 187.0%.

With CCN(C)c1ccc(-c2ccc(NC(=O)c3cc([N+](=O)[O-])ccc3Cl)cc2)cc1 [Example 218, N-[4-[4-(N-Ethyl-N-methylamino)phenyl]phenyl]-(2-chloro-5-nitrophenyl)carboxamide] the “Rate of Increase (%) of ABCA1 mRNA” value (ABCA1 mRNA) was 190.0%.
